“Also recorded” adds a separate entry of the source. Like-named read-outs stand apart in the source and are kept apart here.
Assays:
XaffOBP9 = experiment: Fluorescence binding assays of XaffOBP9 (1-NPN titration and competitive binding); parameters: species or system Xyleborus affinis; details: for Ki: calculated from IC50: Ki = [IC50]/(1 + [1-NPN]/K1-NPN); for IC50: competitor displacing 1-NPN, 2 μM protein, 50 mM Tris-HCl pH 7.4
Procedure: (§1) The purified XaffOBP9 was dissolved at a final concentration of 2 μM in 50 mM Tris-HCl (pH 7.4). The binding ability of the fluorescent probe to XaffOBP9 was measured using the Infinite 200 PRO microplate plate reader (Tecan, Mannedorf, Switzerland). […] These compounds (>90% puity) were purchased from Yuanye Bio-Technology (Shanghai, China), Alading Chemical Industry (Shanghai, China) and Sigma-Aldrich (MO, United States). Binding data were collected as three independent measurements. […] The data analysis and binding curve calculations were processed in Prism 8 (Graphpad Software, San Diego, CA, United States).

XaffOBP9 mutant L114A = experiment: Fluorescence binding assays of mutant L114A; parameters: species or system Xyleborus affinis; details: for binding of ligand to L114A mutant protein: fluorescence binding assays, classes by Ki as in Figure 8 legend
Procedure: (§2) The purified XaffOBP9 was dissolved at a final concentration of 2 μM in 50 mM Tris-HCl (pH 7.4). The binding ability of the fluorescent probe to XaffOBP9 was measured using the Infinite 200 PRO microplate plate reader (Tecan, Mannedorf, Switzerland). […] Binding data were collected as three independent measurements. […] The data analysis and binding curve calculations were processed in Prism 8 (Graphpad Software, San Diego, CA, United States).
(§3) Three types of XaffOBP9 mutants (L71A, L114A, Y106A) were generated using the Fast Site-Directed Mutagenesis Kit (Tiangen, Beijing, China) according to manufacturer protocol. Sited-directed mutagenesis primers were listed in Supplementary Table S1 The PCR amplification reaction was 95°C for 2 min, followed by 94 C for 20 s, 55 C for 10 s, 68 C 2.5 min, with final incubation at 68 °C for 5 min. The three mutant proteins were then expressed and purified following the procedures used for wild-type XaffOBP9.

X. affinis = details: cited from earlier work; for attraction of X. affinis: 2020
XaffOBP9 mutant L71A = experiment: Fluorescence binding assays of mutant L71A; parameters: species or system Xyleborus affinis; details: read-out: Kd with 1-NPN
Procedure: as §1, §3

XaffOBP9 mutant Y106A = experiment: Fluorescence binding assays of mutant Y106A; parameters: species or system Xyleborus affinis
Procedure: as §2, §3

Structure (SMILES) | Ki (XaffOBP9) | IC50 (XaffOBP9) | binding of ligand to L114A mutant protein (XaffOBP9 mutant L114A) | also measured
C=C1C2CCC3C2C(C)(C)CCCC13C (single isomer, unassigned; (+)) [(+)-Longifolene] | 16.7 µM | 19.5 µM | lost its ability to bind | attraction of X. affinis (X. affinis; ref Xu et al.): attraction effect
CC(C)(O)c1ccccc1 [2-Phenyl-2-propanol] | 12 µM | 14 µM | lost its ability to bind | attraction of X. affinis (X. affinis; ref Xu et al.): attraction effect
C=C1CCC2CC1C2(C)C (stereo not drawn) [(-)-β-pinene] | 13.7 µM | 16 µM | – | –
C=C(C)[C@@H]1CC=C(C)CC1 [(S)-(-)-Limonene] | 14 µM | 16.4 µM | lost its ability to bind | –
CC1=CC(O)C2CC1C2(C)C [(S)-cis-Verbenol] | 13.9 µM | 16.2 µM | weakly bound | attraction of this rubber bark beetle (X. affinis; aggregation pheromone, ref Brand et al., 1975, Chen et al., 2019): exhibits attraction effects
C=C1C2CCC(C2)C1(C)C (stereo not drawn) [Camphene] | 8 µM | 9.3 µM | – | –
c1ccc(Nc2cccc3ccccc23)cc1 [Ligand 1-NPN, N-phentl-1-naphthylamine, reference compound] | – | – | – | Kd (XaffOBP9; read-out: dissociation constant K 1-NPN, titration of 2 μM protein with 1-NPN, Scatchard plot): 5.91 µM; Kd (XaffOBP9 mutant L71A): 5.97 µM; Kd (XaffOBP9 mutant Y106A; read-out: Kd with 1-NPN, mutant Y106A): 8.7 µM; Kd (XaffOBP9 mutant L114A; read-out: Kd with 1-NPN, mutant L114A): 14.8 µM
CC1=CCC2C(C1)C2(C)C (stereo not drawn) [Ligand 3-Carene, 3-Carene] | 10.6 µM | 12.4 µM | lost its ability to bind | –
CCCCCCCCCCCCCCCC(=O)OC [Methyl palmitate] | – | – | – | reduction of relative fluorescence intensity of the [XaffOBP/1-NPN] mixture (XaffOBP9; competitive fluorescence binding curves): did not reduce the relative fluorescence intensity to less than half
C=CC(=C)CCC=C(C)C [Myrcene] | 9.8 µM | 11.4 µM | lost its ability to bind | –
C=C1CCC2(C(C)C)CC12 (stereo not drawn) [Sabinene] | 15.6 µM | 18.2 µM | lost its ability to bind | –
CC1=CCC(=C(C)C)CC1 [Terpinolene] | 11.3 µM | 13.2 µM | lost its ability to bind | –
CCCCCCCCCCCCCC [Tetradecane] | 13.5 µM | 15.7 µM | lost its ability to bind | change of binding affinity of Y106A compared with WT (XaffOBP9 mutant Y106A; fluorescence binding assays): noticeable decrease in its affinity; also recorded: certain decrease in binding; attraction of X. affinis (X. affinis; ref Xu et al.): attraction effect
CCO [ethanol] | – | – | – | attraction of X. affinis (X. affinis; attractant lure, ref Ranger et al., 2011, Steininger et al., 2015, Lehenberger et al., Cavaletto et al., 2021): only weakly attracted
Cc1cccc(C(C)C)c1 [m-Cymene] | 14.8 µM | 17.3 µM | weakly bound | –
CC1=CC[C@H]2[C@H]3[C@@H]1[C@]2(C)CC[C@H]3C(C)C [α-copaene] | 11.4 µM | 13.3 µM | weakly bound | –
CC1=CCC2CC1C2(C)C (stereo not drawn) [α-pinene] | 8.5 µM | 9.9 µM | – | effect on attraction of X. affinis (X. affinis; trapping investigations, ref Miller and Rabaglia, 2009): enhance the attractive effect of ethanol
